Experiments:
[1] = tested on: Ostrinia nubilalis; test: Efficacy on the European corn borer on corn leaves, spray treatment; type: in vivo; settings: dose 6.0 L/ha, composition 1.a, counted on D+3
Protocol: The test was carried out on corn infected by the European corn borer. Egg clusters from Ostrinia nubilalis are kept under controlled laboratory conditions in order to allow the eggs to develop. The eggs are kept for 14 hrs in the light and at 18° C., and for 10 hrs in the dark at 15° C. at a relative humidity varying from 60 to 70%. After emerging, the larvae at the 1st and 2nd instar stages are used in the experiment. “Zea Mays” corn of the variety DK315 is grown under the following conditions: 14 hrs in the light at 18° C., and 10 hrs in darkness at 15° C. at a relative humidity (RH) of 60-70%. On D-1, 3 corn leaves are taken from the seedlings and placed in ventilated plastic boxes. 10 larvae are then placed onto the corn leaves in each box, the trial being repeated three times. The larvae are kept for 14 hrs in the light at 18° C., and 10 hrs in darkness at 15° C. at a relative humidity (RH) of 60-70%. The leaves are treated on day D with a composition as described in Example 1.a) with a dose of isoamyl laurate equivalent to 6.0 L/ha. For the treatment, nozzles are used to spray the composition in example 1.a) and to produce a good distribution of the drops onto the plants (TeeJet 110015-VS flat spray nozzle used on a Euro-Pulvé laboratory sprayer). […] On D+3, the larvae and adults present in each box are counted. […]

[2] = tested on: Pollen beetles Meligethes aeneus, susceptible; test: Efficacy on pollen beetles, coated glass phial, IRAC method no.11, susceptible strains; type: in vivo; settings: after 24 hrs
Protocol: (§1) The efficacy of isoamyl laurate against pollen beetles has been evaluated according to a protocol based on IRAC (Insecticide Resistance Action Committee) method no.11, version 3, June 2009.
(§2) Pollen beetles are collected from different locations in infested fields. They are then kept in ventilated plastic boxes, in the bottom of which a dry paper has been placed. A number of oilseed rape leaves as well as 2 to 3 oilseed rape in flower are added as a food source. As it is important that the pollen beetles are not subjected to excessive temperatures, to humid conditions or other sources of stress following collection, they are kept under the following conditions: 14 hrs in the light at 18° C., and 10 hrs in darkness at 15° C. at a relative humidity (RH) of 60-70%.
(§3) The isoamyl laurate product was solubilized in acetone. Each solution was then placed in a homogeneous manner on the inside of a glass phial 2 cm in diameter and 4 cm in height, until the acetone has completely evaporated. The quantity of insecticide provided by 0.5 mL of acetone solution is calculated in such a way that a unit of area of the phial is covered with the same quantity of insecticide as that carried by the same unit of area of a leaf belonging to a field having undergone a treatment at 200 L/ha.
(§4) 10 pollen beetles are introduced into each phial, each trial being carried out twice.
(§5) Mortality is evaluated after 24 hrs.

[3] = tested on: Leptinotarsa decemlineata; test: Efficacy on Colorado potato beetle larvae, leaf soaking, IRAC method no.7; type: in vivo; settings: dose 6.0 L/ha, composition 1.a, L4 larvae, mortality after 5 hrs
Protocol: The efficacy of isoamyl laurate on Colorado potato beetles has been evaluated according to a protocol based on IRAC (Insecticide Resistance Action Committee) method no.7, version 3, June 2009. Eggs from the Colorado potato beetle are collected from fields and placed on the lower (abaxial) surface of potato leaves. After 4 to 15 days, the hatching of the eggs takes place, producing dark red-brown larvae. Potato leaves are treated by soaking for 5 seconds in a composition as described in Example 1.a) at a dose of isoamyl laurate equivalent to 6.0 L/ha. The potato leaves are infested on the abaxial face thereof with 5 Colorado potato beetle larvae at stage L4. Each trial is repeated a second time. Mortality is evaluated after 5 hrs. At a dose of 6.0 L/ha of isoamyl laurate, 10% efficacy is obtained on the Colorado potato beetle larvae.

[4] = tested on: Rhopalosiphum padi; test: Efficacy on aphids on infested wheat seedlings, spray treatment; type: in vivo; settings: sprayed on wheat seedlings
Protocol: The trial was carried out on wheat infected with aphids.
Rhopalosiphum padi aphids are reared on wheat in the laboratory. The rearing conditions are as follows: 14 hrs in the light at 18° C., and 10 hrs in darkness at 15° C. at a relative humidity (RH) of 60-70%.
“Triticum aestivum” wheat of the Apache variety is grown under the following conditions: 14 hrs in the light at 18° C., and 10 hrs in darkness at 15° C. at a relative humidity (RH) of 60-70%. For the experiments, seedlings having reached stage 12 on the BBCH-scale, i.e. 2 leaves, are chosen.
On D-1, 3 adult aphids are placed on each wheat seedling (approximately 30 seedlings per dose tested). The seedlings are kept for 14 hrs in the light at 18° C., and 10 hrs in darkness at 15° C. at a relative humidity (RH) of 60-70%.
On day D, the seedlings are treated with a composition as described in Example 1.a.). Emulsions containing the following doses of isoamyl laurate were tested: 1.35 L/ha (N/4), 2.7 L/ha (N/2), […] (N), 10.8 L/ha (2N) and 16.2 L/ha (3N). Two controls are carried out: a first control using water and a second control using the adjuvant, tested alone, at a dose of 1.8 L/ha, which corresponds to the dose of adjuvant contained in dose 3N of isoamyl laurate. The volume of composition sprayed corresponds to the equivalent of 200 L/ha.
For the treatment, nozzles are used to spray the different emulsions and to produce a good distribution of the drops over the plants (TeeJet 100015-VS flat spray nozzle used on a Euro-Pulvé laboratory sprayer).
On D+1, D+3, D+7, the adults and larvae present on each seedling are counted.
Statistical analysis is carried out using XLSTATS and a variance analysis is carried out using a Newman-Keuls and a Dunnett's test. The Dunnett's tests used post hoc following an ANOVA give a probability of 0.00.
The seedlings are treated on day D with a composition as described in Example 1.b). An emulsion containing the following dose of 2-ethylhexyl caprate was tested: 16.2 L/ha (3N). […]

[5] = Trials comparing a concentrate containing isoamyl laurate with a commercial insecticide containing Lambda-cyhalothrin; settings: concentrate containing isoamyl laurate vs commercial insecticide containing Lambda-cyhalothrin
Text: Preferably, in the concentrates according to the invention, the insecticide and/or arachnicide compound of formula (I) is 3-methylbutyl dodecanoate (isoamyl laurate).

[6] = tested on: Pollen beetles Meligethes aeneus, strains resistant to pyrethroids; test: Efficacy on pollen beetles, coated glass phial, IRAC method no.11, strains resistant to pyrethroids; type: in vivo; settings: after 24 hrs
Protocol: as §1, §2, §3, §4, §5

[7] = dose 3N (16.2 L/ha) on D+1, composition with Actirob B adjuvant

**Q.** Which “efficacy against the larvae and adults” value [1] does the source give for `CCCCCCCCCCCC(=O)OCCC(C)C` [isoamyl laurate, 3-methylbutyl dodecanoate] here?
**A.** 19.5%

**Q.** What about the “Efficacy (%) Susceptible” value ([2]; dose 2.0 L/ha) of the same molecule?
**A.** 55%

**Q.** And the “Efficacy (%) Susceptible” value ([2]; dose 4.0 L/ha)?
**A.** 90%

**Q.** And the “efficacy (mortality) on larvae” value [3]?
**A.** 10%

**Q.** And the efficacy ([4]; dose 3N (16.2 L/ha), composition 1.a with Actirob B adjuvant, FIG. 2)?
**A.** ~80%

**Q.** And the “toxicity (aquatic toxicity, toxicity in humans through inhalation, irritation of the skin and eyes)” value [5]?
**A.** less toxic

**Q.** What about the “Efficacy (%) Strains resistant to pyrethroids” value ([6]; dose 2.0 L/ha) of the same molecule?
**A.** 40%

**Q.** What about the “Efficacy (%) Strains resistant to pyrethroids” value ([6]; dose 4.0 L/ha) of the same molecule?
**A.** 75%

**Q.** For `CCCCCCCCCC(=O)OCC(CC)CCCC` (stereo not shown) [2-ethylhexyl caprate], which efficacy [4, 7] is on record?
**A.** ~55%

**Q.** For `CCCCCCCCCCCCCCCC(=O)OCC(CC)CCCC` (stereo not shown) [2-ethylhexyl palmitate, reference compound], which efficacy [4, 7] is on record?
**A.** approximately 10%
